Assay results: US20130337564A1, “Treatment of Pluripotent Cells” (Janssen Biotech, Inc., priority 2012, published 2013)

Tests used:
Assay type in all cases: cell-based
[1] = test system: cells expressing pluripotency markers derived from human embryonic stem cells; test: MTS viability (toxicity) assay of cells expressing pluripotency markers; set-up: Raw data (duplicate), first replicate / Average: unit not given here; conditions: for Raw data (duplicate), first replicate / Raw data (duplicate), second replicate: MTS viability assay raw reading; for Raw data (duplicate), first replicate: replicate 1; for Raw data (duplicate), second replicate: replicate 2; for Average: average of duplicate MTS raw readings; for % Control / viability at 10 µM: viability of cells expressing pluripotency markers, relative to control; for viability at 10 µM: Homo sapiens, Embryonic stem cell
Method: Derivation and maintenance of cells expressing pluripotency makers was conducted as has been described in Example 2. Cells were grown in DMEM:F12 supplemented with 2% FCS (Invitrogen), 100 ng/ml Activin A, 20 ng/ml Wnt-3a, and 50 ng/ml IGF (R&D Biosystems). Cells were seeded at a density of 10,000 cells/cm^2 on Falcon polystyrene flasks and grown in monolayer culture at 37° C., 5% CO2, low oxygen. After reaching 60-70% confluence, cells were passed by washing the monolayer with PBS and incubating with TrypLE (Invitrogen) for 3-5 minutes to allow detachment and single cell dispersal.
Screening was conducted using test compounds from a proprietary library of small molecules selected for their ability to inhibit GSK-3B enzyme activity. Compounds from this library were made available as 1 mM stocks, in a 96-well plate format in 50 mM HEPES, 30% DMSO. For assay, cells expressing pluripotency markers were washed, counted, and plated in normal culture medium at a seeding density of 20,000 cells per well in 96-well clear-bottom, dark-well plates (Costar). This seeding density was previously determined to yield optimal monolayer formation in overnight culture. On the following day, culture medium was removed, cell monolayers were rinsed three times with PBS, and test compounds were added to the wells in 80 μl aliquots, each diluted into assay medium at a final assay concentration of 10 μM. On day 2 of the assay, medium was removed from each well and replaced with a fresh aliquot of test compounds diluted into assay medium. Assay medium on days 1 and 2 of culture consisted of DMEM:F12 supplemented with 0.5% FCS and 100 ng/ml Activin A. On days 3 and 4 of culture, medium was removed from each well and replaced with DMEM:F12 supplemented with 2% FCS and 100 ng/ml Activin A (no test compound). On day 4 of assay, 15 μl of MTS (Promega) was added to each well and plates were incubated at 37° C. for 1.5 to 4 hours prior to reading optical density at 490 nm on a SpectraMax (Molecular Devices) instrument. Statistical measures consisting of mean, standard deviation, and coefficient of variation were calculated for each duplicate set. Toxicity was calculated for each test well relative to a positive control (wells treated with Activin A and Wnt3a on days 1 and 2 of culture).
A larger proportion of the compounds have minimal or no measurable toxicity in this cell-based assay.
A small panel of select compounds was repeat tested over a narrow dose titration range, again using cells expressing pluripotency markers in a similar assay as described above.

[2] = test system: human embryonic stem cells (H9 line); test: High content screening assay: cell number (proliferative response); conditions: for fold induction at 10 µM: Homo sapiens, Embryonic stem cell, read-out: Proliferative Response, Fold over Wnt 3a/AA control
Method: (§1) Maintenance of human embryonic stem cells (H9 line) was conducted as described in Example 1. Colonies of cells were maintained in an undifferentiated, pluripotent state with passage on average every four days. Passage was performed by exposing cell cultures to a solution of collagenase (1 mg/ml; Sigma-Aldrich) for 10 to 30 minutes at 37° C. followed by gentle scraping with a pipette tip to recover cell clusters. Clusters were allowed to sediment by gravity, followed by washing to remove residual collagenase. Cell clusters were split at a 1:3 ratio for routine maintenance culture or a 1:1 ratio for immediate assay. The human embryonic stem cell lines used were maintained at passage numbers less than passage 50 and routinely evaluated for normal karyotypic phenotype and absence of mycoplasma contamination.
(§2) Cell clusters used in the assay were evenly resuspended in normal culture medium and plated onto MATRIGEL-coated 96-well Packard VIEWPLATES (PerkinElmer) in volumes of […]. MEF conditioned medium supplemented with 8 ng/ml bFGF was used for initial plating and recovery. Daily feeding was conducted by aspirating spent culture medium from each well and replacing with an equal volume of fresh medium. Plates were maintained at 37° C., 5% CO2 in a humidified box throughout the duration of assay.
(§3) Screening was conducted using test compounds from a proprietary library of small molecules selected for their ability to inhibit GSK-3B enzyme activity. Compounds from this library were made available as 1 mM stocks, in a 96-well plate format in 50 mM HEPES, 30% DMSO. Screening compounds were tested in triplicate or duplicate sets. Primary screening assays were initiated by aspirating culture medium from each well followed by three washes in PBS to remove residual growth factors and serum. Test volumes of 80 to 100 μl per well were added back containing DMEM:F12 base medium (Invitrogen) supplemented with 0.5% FCS (HyClone) and 100 ng/ml activin A (R&D Biosystems) plus 10 μM test compound. Positive control wells contained the same base medium, substituting 10-20 ng/ml Wnt3a (R&D Biosystems) for the test compound. Negative control wells contained base medium with 0.5% FCS and activin A alone (AA only) or alternatively, 0.5% FCS without activin A or Wnt3a (no treatment). Wells were aspirated and fed again with identical solutions on day 2 of assay. On days 3 and 4, all assay wells were aspirated and converted to DMEM:F12 supplemented with 2% FCS and 100 ng/ml activin A (without test compound or Wnt3a); parallel negative control wells were maintained in DMEM:F12 base medium with 2% FCS and activin A (AA only) or alternatively, 2% FCS without activin A (no treatment).
(§4) At the end of culture, cells in 96-well plates were fixed with 4% paraformaldehyde at room temperature for 20 minutes, washed three times with PBS, and then permeabilized with 0.5% Triton X-100 for 20 minutes at room temperature. Alternatively, cells were fixed with ice cold 70% ethanol overnight at −20° C., washed three times with PBS, and then permeabilized with Triton X-100 for 5 minutes at 4° C. After fixing and permeabilizing, cells were washed again three times with PBS and then blocked with 4% chicken serum (Invitrogen) in PBS for 30 minutes at room temperature. Primary antibodies (goat anti-human Sox17 and goat anti-human HNF-3beta; R&D Systems) were diluted 1:100 in 4% chicken serum and added to cells for one hour at room temperature. Alexa Fluor 488 conjugated secondary antibody (chicken anti-goat IgG; Molecular Probes) was diluted 1:200 in PBS and added after washing the cells three times with PBS. To counterstain nuclei, 5 mM Draq5 (Alexis Biochemicals) was added for five minutes at room temperature. Cells were washed once with PBS and left in […] PBS for imaging.
(§5) Cells were imaged using an IN Cell Analyzer 1000 (GE Healthcare) utilizing the 51008bs dichroic for cells stained with Draq5 and Alexa Fluor 488. […]

[3] = test system: Sox17 expression in human embryonic stem cells (H9 line); test: High content screening assay: Sox17 protein expression (differentiation); conditions: for SOX17 Expression, Fold over Wnt 3a/AA control / fold induction at 10 µM: 10 μM test compound with 100 ng/ml activin A on days 1-2, H9, total intensity by IN Cell Analyzer, strong and moderate hits; for SOX-17 Expression Fold over Wnt 3a/AA control: total intensity normalised to Wnt 3a/AA control; for fold induction at 10 µM: Homo sapiens, Embryonic stem cell, read-out: SOX17 Expression, Fold over Wnt 3a/AA control
Method: as §1, §2, §3, §4, §5

[4] = test system: HNF-3beta expression in human embryonic stem cells (H9 line); test: High content screening assay: HNF-3beta protein expression (differentiation); conditions: for HNF-3b Expression Fold over Wnt 3a/AA control: total intensity normalised to Wnt 3a/AA control
Method: as §1, §2, §3, §4, §5

[5] = 10 μM test compound with 100 ng/ml activin A on days 1-2, H9, total cell number by IN Cell Analyzer, strong and moderate hits
[6] = cell number in the wells analysed for HNF-3b expression
[7] = cell number in the wells analysed for HNF-3b expression, normalised to Wnt 3a/AA control
[8] = cell number in the wells analysed for SOX-17 expression
[9] = cell number in the wells analysed for SOX-17 expression, normalised to Wnt 3a/AA control
[10] = 10 μM test compound with 100 ng/ml activin A on days 1-2, H9, total intensity by IN Cell Analyzer, strong and moderate hits

| SMILES | Raw data (duplicate), first replicate [1] | Raw data (duplicate), second replicate [1] | Average [1] | % Control [1] [%] | Proliferative Response Fold over Wnt 3a/AA control [2, 5] | Proliferative Response Total cells [2, 6] | Proliferative Response Fold over Wnt 3a/AA control [2, 7] [fold] | Proliferative Response Total cells [2, 8] | Proliferative Response Fold over Wnt 3a/AA control [2, 9] [fold] | SOX17 Expression, Fold over Wnt 3a/AA control [3] | SOX-17 Expression Total Intensity [3] | SOX-17 Expression Fold over Wnt 3a/AA control [3] [fold] | HNF3β Expression, Fold over Wnt 3a/AA control [4, 10] | HNF-3b Expression Total Intensity [4] | HNF-3b Expression Fold over Wnt 3a/AA control [4] [fold] | viability at 10 µM [1] [%] | fold induction at 10 µM [2, 5] | fold induction at 10 µM [3] | fold induction at 10 µM ([4]; Homo sapiens, Embryonic stem cell, 10 μM test compound with 100 ng/ml activin A on days 1-2, H9, total intensity by IN Cell Analyzer, strong and moderate hits, read-out: HNF3β Expression, Fold over Wnt 3a/AA control) |
| --- | --- | --- | --- | --- | --- | --- | --- | --- | --- | --- | --- | --- | --- | --- | --- | --- | --- | --- | --- |
| O=C1NC(=O)C2=C1c1cn(c3ncccc13)CCOCCOCCOCCOCCn1cc2c2cccnc21 [Compound 6, 10,11,13,14,16,17,19,20,22,23-Decahydro-1H-9,4:24,29-di(metheno)dipyrido[2,3-n:3′,2′-t]pyrrolo[3,4-q][1,4,7,10,13,22]tetraoxadiazacyclotetracosine-1,3(2H)-dione] | 0.706 | 0.672 | 0.689 | 83.9 | 1.9264 Fold over Wnt 3a/AA control | 9728 | 1.926 | 9964.5 | 1.25 | 0.9706 Fold over Wnt 3a/AA control | 363855000 | 0.9706 | 1.3832 Fold over Wnt 3a/AA control | 635655000 | 1.3832 |  |  |  |  |
| CN(C)CCCn1nc(C2=C(c3cn(-c4cccc5ccccc45)c4ccccc34)C(=O)NC2=O)c2ccccc21 [Compound 8] | 0.165 | 0.154 | 0.159 |  |  | 5096 |  | 5706.5 |  |  | 319930000 |  |  | 341360000 |  | 5.2 | 1.01 | 0.853 | 0.743 |
| COCCN1CCOCCn2cc(c3ccccc32)C2=C(C(=O)NC2=O)c2nn(c3ccccc23)CCOCC1 [Compound 10, 11-(2-Methoxyethyl)-6,7,10,11,12,13,15,16-octahydro-9H,23H-5,26-(azeno)-17,22-(metheno)dibenzo[k,q]pyrrolo[3,4-n][1,7,4,10,19]dioxatriazacyclohenicosine-23,25(24H)-dione] | 0.601 | 0.620 | 0.611 | 72.2 | 0.8926 Fold over Wnt 3a/AA control | 4507 | 0.8926 | 4645.5 | 0.5829 | 0.6864 Fold over Wnt 3a/AA control | 257295000 | 0.6864 | 0.6803 Fold over Wnt 3a/AA control | 312605000 | 0.6803 |  |  |  |  |
| O=C1CCCCn2cc(c3cccnc32)C2=C(C(=O)NC2=O)c2cn(c3ncccc23)CCCC1 [Compound 11, 8,9,11,12,13,14-Hexahydro-6H,21H-5,24:15,20-di(metheno)dipyrido[2,3-b:3′,2′-h]pyrrolo[3,4-e][1,10]diazacyclononadecine-10,21,23(7H,22H)-trione] | 0.743 | 0.638 | 0.691 | 84.1 | 0.6025 Fold over Wnt 3a/AA control | 3043 | 0.6025 | 2892.5 | 0.363 | 0.5686 Fold over Wnt 3a/AA control | 213165000 | 0.5686 | 0.5866 Fold over Wnt 3a/AA control | 269570000 | 0.5866 |  |  |  |  |
| CN(C)CCCn1cc(C2=C(c3ccccc3Cl)C(=O)NC2=O)c2cccnc21 [Compound 12, 3-(2-Chlorophenyl)-4-{1-[3-(dimethylamino)propyl]-1H-pyrrolo[2,3-b]pyridin-3-yl}-1H-pyrrole-2,5-dione] | 0.148 | 0.152 | 0.150 |  |  | 2410 |  | 2460.5 |  |  | 203350000 |  |  | 209795000 |  | 4.8 |  |  |  |
| O=C1NC(=O)C(c2nn(CCCO)c3ccccc23)=C1c1cn(-c2ccc3ccccc3c2)c2ccccc12 [Compound 13] | 0.767 | 0.789 | 0.778 |  |  | 4556 |  | 4783 |  |  | 306085000 |  | 0.7104 Fold over Wnt 3a/AA control | 326475000 |  | 92.6 | 0.902 | 0.817 |  |
